This passage reports IC50 results from BindingDB's records for PubMed 1874734 (Laboratoires Glaxo, 1991).

The assay addresses cAMP-dependent protein kinase catalytic subunit alpha (Rattus norvegicus, UniProt P27791). Nature of the assay: PKA assay.

As usually defined, the IC50 is the concentration that inhibits the measured activity by half. Lower therefore signals higher potency. `CN1CCCC1CCn1cc(C2=C(c3c[nH]c4ccccc34)C(=O)NC2=O)c2ccccc21` (configuration not stated) [3-(1H-indol-3-yl)-4-{1-[2-(1-methylpyrrolidin-2-yl)ethyl]-1H-indol-3-yl}-2,5-dihydro-1H-pyrrole-2,5-dione] came in with an IC50 of 2000 nM.
The figure for `CN(C)CCCn1cc(C2=C(c3c[nH]c4ccccc34)CNC2=O)c2ccccc21` [3-[1-(3-dymethylaminopropyl)-indol-3-yl]-4-(indol-3-yl)-3-pyrrolin-2-one] is more than 10000 nM.
